The test system of assay [1] is wheat leaf rust (Puccinia recondita). Nature of the assay: Controlling effect test against wheat leaf rust (foliar spray on potted wheat seedlings). The assay is classed as in vivo. The following applies: sprayed alone.
Another assay deals with Microdocum nivale. Nature of the assay: In vitro antimicrobial activity test on PDA plate media (colony diameter). The format is cell-based. The following applies: used alone.
Another assay deals with Glomerella cingulata. The description is as above. The format is cell-based.
Assay [2] deals with Alternaria alternata apple pathotype. The description is as above. The assay is classed as cell-based. The following applies: used alone.
The next assay has as its system Gaeumannomyces graminis. The description is as above. The assay is classed as cell-based. The conditions noted are these: used alone.
The next assay relates to Fusarium graminearum. Nature of the assay: microbe, parasite or virus in culture. The format is cell-based.
In another assay the test system is Pyrenophora graminea. Nature of the assay: In vitro antimicrobial activity test on PDA plate media (colony diameter). The conditions noted are these: used alone. The assay is classed as cell-based.
The next assay deals with Fusarium fujikuroi. The assay is described as above. The following applies: used alone. The assay is classed as cell-based.
For a further assay, the system named is Penicillium italicum. Described as above. The conditions noted are these: Penicillium italicum, read-out: Actual fungal growth inhibition rate (%). The format is cell-based.
Another assay has as its system Cercospora beticola. Nature of the assay: In vitro antimicrobial activity test in 96-well microplate (absorbance at 620 nm). The assay is classed as cell-based. The conditions noted are these: used alone.
Where [3] appears, read: Colletotrichum gloeosporioides, used alone, 0.13 ppm, read-out: Actual fungal growth inhibition rate (%).
[4] abbreviates: Colletotrichum gloeosporioides, used alone, 0.50 ppm, read-out: Actual fungal growth inhibition rate (%).
The mark [5] stands for this setting: Colletotrichum gloeosporioides, used alone, 0.01 ppm, read-out: Actual fungal growth inhibition rate (%).
Setting [6] is: Alternaria alternata, 0.13 ppm, read-out: Actual fungal growth inhibition rate (%).
The mark [7] stands for this setting: Gaeumannomyces graminis, 0.13 ppm, read-out: Actual fungal growth inhibition rate (%).
Setting [8] is: Fusarium graminearum, read-out: Actual fungal growth inhibition rate (%).
The mark [9] stands for this setting: Pyrenophora graminea, 0.50 ppm, read-out: Actual fungal growth inhibition rate (%).

Values joined by “and” are separate entries in the source; they are usually repeats but may differ in a detail not shown here. Identical values can stand only once. Like-named read-outs stand apart in the source and are kept apart here.

As to `CO/C=C(/C(=O)OC)c1ccccc1Oc1cc(Oc2ccccc2C#N)ncn1` [Azoxystrobin, azoxystrobin, reference compound], the Actual controlling rate in assay [1] (1.25 g/ha) turned out to be 47%.

Take `COC(=O)C(O)(Cn1cncn1)c1ccc(Oc2ccc(Cl)cc2)cc1C(F)(F)F` (stereo not drawn) [Azole derivative I-122]: the “Actual fungal growth inhibition rate (%)” value in the assay with Microdocum nivale (0.01 ppm) was found to be 0%; in the assay with Microdocum nivale (0.03 ppm) it was 0%; in the assay with Microdocum nivale (0.13 ppm), 4%; with Glomerella cingulata (used alone, 0.01 ppm) it was 8%; in the assay on Glomerella cingulata (used alone, 0.03 ppm), 14%; with Glomerella cingulata (used alone, 0.13 ppm) it was 45%. In addition, the “Actual fungal growth inhibition rate (%)” value is 82% in the assay on Glomerella cingulata (used alone, 0.50 ppm); 0% in assay [2] (0.13 ppm); 5% in assay [2] (0.50 ppm); 0% in the assay on Gaeumannomyces graminis (0.01 ppm); 32% in the assay with Gaeumannomyces graminis (0.03 ppm); 70% and 57% in the assay on Gaeumannomyces graminis (0.13 ppm). The “Actual fungal growth inhibition rate (%)” value in the assay on Gaeumannomyces graminis (0.31 ppm) is recorded as 96%; in the assay on Gaeumannomyces graminis (0.50 ppm) it was 97%; in the assay with Gaeumannomyces graminis (1.25 ppm), 96%; in the assay with Fusarium graminearum it was 83%; with Pyrenophora graminea (0.13 ppm), 75%; in the assay on Pyrenophora graminea (0.50 ppm), 82%.

Regarding `O=C(NCCc1ncc(C(F)(F)F)cc1Cl)c1ccccc1C(F)(F)F` [Fluopyram, fluopyram, reference compound], the inhibition at 0.13 ppm with Glomerella cingulata (setting [3]) was found to be 3%. Moreover, the inhibition at 0.5 ppm with Glomerella cingulata (setting [4]) is 9%; in the assay with Fusarium fujikuroi (Fusarium fujikuroi, 0.50 ppm, read-out: Actual fungal growth inhibition rate (%)), 21%. The inhibition at 0.03 ppm in the assay on Fusarium fujikuroi (Fusarium fujikuroi, 0.03 ppm, read-out: Actual fungal growth inhibition rate (%)) amounted to 6%.

On to `OC(Cc1ccccc1Cl)(Cn1nc[nH]c1=S)C1(Cl)CC1` (stereo not drawn) [Prothioconazole, prothioconazole, reference compound], for which the inhibition at 0.13 ppm in the assay on Microdocum nivale (0.13 ppm, read-out: Actual fungal growth inhibition rate (%)) was found to be 13%; in the assay on Glomerella cingulata (setting [3]) it was 0%; in [2] (setting [6]), 48%; with Gaeumannomyces graminis (setting [7]), 0%; in the assay on Penicillium italicum (used alone, 0.13 ppm), 18%; in the assay with Penicillium italicum (single chemical at 0.13 ppm), 19%. Besides, the inhibition at 0.01 ppm came to 0% in the assay with Glomerella cingulata (setting [5]) and 1% in the assay with Fusarium graminearum (setting [8]). Also, the inhibition at 0.03 ppm in the assay with Glomerella cingulata (Colletotrichum gloeosporioides, used alone, 0.03 ppm, read-out: Actual fungal growth inhibition rate (%)) was 1%; in the assay on Fusarium graminearum (setting [8]), 19%. Also, the inhibition at 0.5 ppm turned out to be 24% in the assay with Glomerella cingulata (setting [4]); 36% in the assay on Gaeumannomyces graminis (Gaeumannomyces graminis, 0.50 ppm, read-out: Actual fungal growth inhibition rate (%)); 54% in the assay with Pyrenophora graminea (setting [9]).

Turning to `Cn1cc(C(=O)Nc2ccccc2-c2cc(F)c(F)c(F)c2)c(C(F)F)n1` [Fluxapyroxad, fluxapyroxad, reference compound], the “Actual fungal growth inhibition rate (%)” value in the assay on Gaeumannomyces graminis (0.10 ppm) is 0%; in the assay on Gaeumannomyces graminis (1.56 ppm), 0% and 9%.

In the case of `COc1ccnc(C(=O)N[C@H]2COC(=O)[C@H](Cc3ccccc3)[C@@H](OC(=O)C(C)C)[C@H](C)OC2=O)c1OCOC(=O)C(C)C` [Fenpicoxamid, fenpicoxamid], the “Actual growth inhibition rate” value with Cercospora beticola (0.04 ppm) turned out to be 28%; in the assay on Cercospora beticola (0.2 ppm), 59%; with Cercospora beticola (1.0 ppm), 60%; in the assay with Cercospora beticola (5.0 ppm) it was 100%.

For `CON(C(=O)c1cn(C)nc1C(F)F)C(C)Cc1c(Cl)cc(Cl)cc1Cl` (stereo not drawn) [Pydiflumetofen, pydiflumetofen, reference compound], the Actual controlling rate amounted to 11% in assay [1] (0.63 g/ha); 44% in assay [1] (1.25 g/ha); 44% in assay [1] (2.5 g/ha); 67% in assay [1] (5 g/ha); 83% in assay [1] (10 g/ha).

Take `CCCN(CC)CC1COC2(CCC(C(C)(C)C)CC2)O1` (stereo not drawn) [Spiroxamine, spiroxamine, reference compound]: in the assay with Gaeumannomyces graminis (Gaeumannomyces graminis, 0.002 ppm, read-out: Actual fungal growth inhibition rate (%)), the inhibition at 0.002 ppm was determined as 0%. In addition, the inhibition at 0.13 ppm with Gaeumannomyces graminis (setting [7]) amounted to 0%. In addition, the inhibition at 0.01 ppm in the assay on Pyrenophora graminea (Pyrenophora graminea, 0.01 ppm, read-out: Actual fungal growth inhibition rate (%)) was determined as 0%. Besides, the inhibition at 0.03 ppm in the assay with Pyrenophora graminea (Pyrenophora graminea, 0.03 ppm, read-out: Actual fungal growth inhibition rate (%)) came out at 0%.

`CC(C)c1ccc(Cl)cc1CN(C(=O)c1c(C(F)F)nn(C)c1F)C1CC1` [Isoflucypram, isoflucypram]: the “Actual growth inhibition rate” value is 7% in the assay with Cercospora beticola (0.008 ppm), 3% in the assay with Cercospora beticola (0.04 ppm), 0% in the assay on Cercospora beticola (0.2 ppm) and 48% with Cercospora beticola (1.0 ppm).

On to `CC(O)(Cn1cncn1)c1ccc(Oc2ccc(Cl)cc2)cc1C(F)(F)F` (stereo not drawn) [Mefentrifluconazole, mefentrifluconazole, reference compound], for which the “Actual fungal growth inhibition rate (%)” value worked out at 1% in the assay on Microdocum nivale (0.01 ppm); 74% with Glomerella cingulata (Glomerella cingulata, single chemical at 0.13 ppm); 17% in the assay with Glomerella cingulata (used alone, 0.01 ppm); 41% in the assay on Glomerella cingulata (used alone, 0.03 ppm); 77% in the assay with Glomerella cingulata (used alone, 0.50 ppm); 62% in assay [2] (0.50 ppm). The “Actual fungal growth inhibition rate (%)” value was 0% in the assay on Gaeumannomyces graminis (0.002 ppm), 0% in the assay with Gaeumannomyces graminis (0.01 ppm) and 19% with Gaeumannomyces graminis (0.03 ppm).

Take `CC(C)CC(C)c1sccc1NC(=O)c1cn(C)nc1C(F)(F)F` (stereo not drawn) [Penthiopyrad, penthiopyrad]: in the assay with Fusarium graminearum (setting [8]), the inhibition at 1.25 ppm is 7%, the inhibition at 5 ppm stood at 22% and the inhibition at 20 ppm was 28%.

On to `CC1(C)CCC(Cc2ccc(Cl)cc2)C1(O)Cn1cncn1` (stereo not drawn) [Metconazole, metconazole, reference compound], for which the inhibition at 0.001 ppm in the assay with Glomerella cingulata (Colletotrichum gloeosporioides, used alone, 0.001 ppm, read-out: Actual fungal growth inhibition rate (%)) was 4%. The inhibition at 0.003 ppm in the assay with Glomerella cingulata (Colletotrichum gloeosporioides, used alone, 0.003 ppm, read-out: Actual fungal growth inhibition rate (%)) is 7%. Moreover, the inhibition at 0.01 ppm with Glomerella cingulata (setting [5]) was determined as 28%.

On to `CO/N=C(/C1=NOCCO1)c1ccccc1Oc1ncnc(Oc2ccccc2Cl)c1F` [Fluoxastrobin, fluoxastrobin, reference compound], for which, in the assay on Microdocum nivale (0.01 ppm, read-out: Actual fungal growth inhibition rate (%)), the inhibition at 0.01 ppm turned out to be 96%. The inhibition at 0.5 ppm in the assay with Glomerella cingulata (setting [4]) came out at 48%; in assay [2] (Alternaria alternata, 0.50 ppm, read-out: Actual fungal growth inhibition rate (%)) it was 43%; with Pyrenophora graminea (setting [9]), 55%. The inhibition at 0.13 ppm in assay [2] (setting [6]) stood at 48%; in the assay on Pyrenophora graminea (Pyrenophora graminea, 0.13 ppm, read-out: Actual fungal growth inhibition rate (%)), 51%. Moreover, the “Actual fungal growth inhibition rate (%)” value in the assay with Pyrenophora graminea (0.13 ppm) was found to be 46%; in the assay on Pyrenophora graminea (0.50 ppm), 59%.

For `Cn1cc(C(=O)Nc2ccc(F)cc2-c2ccc(Cl)c(Cl)c2)c(C(F)F)n1` [Bixafen, bixafen], the “Actual fungal growth inhibition rate (%)” value in the assay with Microdocum nivale (0.10 ppm) is 0%; in the assay with Fusarium fujikuroi (0.13 ppm), 13%; in the assay with Fusarium fujikuroi (0.50 ppm), 19%; in assay [2] (0.03 ppm), 14%; with Fusarium graminearum (used alone, 0.10 ppm), 6% and 0%; in the assay with Pyrenophora graminea (1.56 ppm), 75%.

The values above are taken from US12207654B2, “Bactericidal agent for agricultural or horticultural use, plant disease control method, and product for plant disease control use” (Kureha Corporation, priority 2019, dated 2025).
